SMILES strings stand for the structures. In brackets after ≈: the same amount, converted by molar mass. Several values for one entry are separate records, joined by “and”; a condition that tells them apart may be missing. Equal entries are not always repeated.

One assay concerns P. aeruginosa DH-5698. Nature of the assay: Broth microdilution MIC/MBC. It is filed as cell-based, Pseudomonus aeruginosa. The note with it: for MIC: Pseudomonas aeruginosa, DH5698, 24 h, read-out: MIC (Mean ± SEM); for MBC/MIC: value in brackets. The procedure:
(§1) The broth microdilution method was taken as a basis to detect the MICs of pyrazole compounds against tested clinical isolates, according to the Clinical Laboratory and Standards Institute guidelines. The broth cultures were used to prepare the bacterial inoculums, and the suspensions were adjusted to the standard 0.5 McFarland turbidity. Stock solutions of the synthesized pyrazoles were prepared in pure DMSO and further serially diluted with TS broth in the concentration range from 128 µg/mL to 0.0625 µg/mL. A well containing noninoculated TS broth, free of any antimicrobial agents, was also included to ensure the medium sterility, while Erythromycin and Amikacin served as positive controls. Bacterial growth was determined by adding 20 µL of 0.5% TTC (2,3,5-triphenyltetrazolium chloride) aqueous solution. […] All experiments were repeated three times. The bactericidal effect from each concentration of the pyrazole and pyrazolo[1,5-a]pyrimidine derivatives showing growth inhibition was further studied. For this study, a loopful of 5 µL was taken from each no-visible growth tube and streaked onto plates of TS agar.
A general note: In broth dilution the organism is exposed to a series of concentrations in liquid medium.

For the next assay, the system named is P. aeruginosa biofilm. In words: Crystal violet biofilm inhibition assay. The note with it: compounds at their MICs, crystal violet OD570. Format: cell-based. The protocol: (§2) The microtiter plate method was used to evaluate the active pyrazoles’ inhibitory activities on the strong biofilm-forming bacterial strains. This method was carried out as described, with some modifications. The antibiofilm effects of tested pyrazoles are presented as a percentage change from untreated bacterial controls. Overnight cultures of micro-organisms in the TSB medium with 10% (wt/vol) glucose were prepared as 10^8 CFU/mL, and then 100 µL was dispensed into each test well. Then, 100 µL of different concentrations of compounds, at their MICs, were dispensed into each well. The negative control contained only TSB, whereas the positive control contained cell cultures without compound addition. The supernatant was decanted and each well gently rinsed three times with 300 µL of sterile distilled water and discarded after incubation at 37 °C for 48 h. The plates were dried with air for 40 min. They were stained with 0.1% (wt/vol) crystal violet at room temperature for 30 min and washed three times with sterile distilled water. Afterward, the crystal violet was solubilized in 95% ethanol, and the absorbance was read in a microplate reader (MicroplatePhotometer and Multiskan FC) at 570 nm. This test was performed in triplicate, and the mean was taken as an average of three readings. The percentage of biofilm inhibition was calculated according to Equation (1):(1) Biofilm eradication %=OD positivecontrol−OD sample /OD positive control×100

The test system of the next assay is Gram-positive isolates. Nature of the assay: Broth microdilution MIC/MBC, summary. It is filed as cell-based. The procedure:
as §1

The subject of the next assay is Gram-negative isolates. In words: Broth microdilution MIC/MBC, summary. Format: cell-based. The procedure:
as §1

A further assay has as its system C. violaceum CV026. Nature of the assay: Quorum-sensing inhibition bioassay on Soft Top agar. The note with it: CV026 biosensor strain, sub-MIC. Format: cell-based, Chromobacterium violaceum. The protocol: The anti-QS potential of the tested compounds was explored as described. Briefly, an overnight bacterial suspension of the indicator organism C. violaceum CV026 was prepared in a concentration of 10^6 CFU/mL, and an aliquot of 200 µL was seeded in 5 mm of Soft Top agar (1.3 g agar, 2.0 g tryptone, 1.0 g NaCl, and 200 mL deionized water), supplemented with 20 µL of 0.25 µg/mL C6-HSL (N-hexanoyl-L-homoserine lactone), added as an exogenous AHL source. Wells were cut in the center of the plate after incubation for 30 min and then filled with 50 µL of sub-MICs of each most-active pyrazole hybrid. DMSO was used as a negative control. The plates were incubated at 28 °C for 48 h. Inhibition of violacein production by the indicator strain around the well, indicated by the presence of a white circle surrounded by a purple halo, was considered as positive for QS interference. For further investigation to determine the anti-QS activity for the pyrazole against the biofilm-forming bacterial isolates, an in vitro screening was performed. This was carried out by inoculation of 200 µL from an O/N CV026 culture onto plates of Soft Top agar. Wells of 8 mm diameter were separately made and filled with 90 µL of each biofilm-forming bacterial isolate (10^6 CFU/mL), plus 10 µL of each active pyrazole derivative (sub-MICs). Wells containing the bacterial isolates without treatment were used as controls. The signal diffusion zone diameter produced during the bacterial growth was measured in the presence of pyrazole and pyrazolo[1,5-a]pyrimidine derivatives and compared with the zone diameter of the violacein production by CV026.

The subject of another assay is S. pyogenes DH-3467. In words: Broth microdilution MIC/MBC. Format: cell-based, Streptococcus pyogenes. The note with it: for MIC: Streptococcus pyogenes, DH3467, 24 h, read-out: MIC (Mean ± SEM); for MBC/MIC: value in brackets. The procedure: as §1
For another assay, the system named is E. coli DH-5987. Nature of the assay: Broth microdilution MIC/MBC. Format: cell-based, Escherichia coli. The note with it: for MBC/MIC / MIC / MIC (Mean ± SEM): E. coli DH-5987; for MBC/MIC: value in brackets; for MIC / MBC: Escherichia coli, DH5987; for MIC / MIC (Mean ± SEM): 24 h; for MIC: read-out: MIC (Mean ± SEM); for MBC: E. coli. The protocol: as §1
For another assay, the system named is E. faecalis DH-5478. In words: Broth microdilution MIC/MBC. It is filed as cell-based, Enterococcus faecalis. The note with it: for MIC: Enterococcus faecalis, DH5478, 24 h, read-out: MIC (Mean ± SEM); for MBC/MIC: value in brackets. The protocol: as §1
Another assay relates to S. aureus biofilm. Nature of the assay: Crystal violet biofilm inhibition assay. It is filed as cell-based. The note with it: compounds at their MICs, crystal violet OD570. The procedure:
as §2

Another assay relates to tested isolates. In words: Broth microdilution MIC/MBC, summary. Format: cell-based. The procedure: as §1

On to `CCOC(=O)c1ccc(N=Nc2c(N)n[nH]c2N)cc1` [Compound 3a, Ethyl 4-((3,5-diamino-1H-pyrazol-4-yl)diazenyl)benzoate], for which the minimum inhibitory concentration (MIC) with P. aeruginosa DH-5698 is 0.125 ± 0.2 µg/mL (≈ 0.456 µM); in the assay with Gram-positive isolates, 0.125 µg/mL (≈ 0.456 µM); against Gram-negative isolates, 0.062 to 0.25 µg/mL (≈ 0.226 to 0.911 µM); in the assay on S. pyogenes DH-3467, 0.125 ± 0.3 µg/mL (≈ 0.456 µM); with E. coli DH-5987, 0.0625 ± 0.4 µg/mL (≈ 0.228 µM); in the assay with E. faecalis DH-5478 it was 0.125 ± 0.1 µg/mL (≈ 0.456 µM). For the same molecule, the MBC/MIC in the assay with P. aeruginosa DH-5698, against S. pyogenes DH-3467, in the assay with E. coli DH-5987 and in the assay with E. faecalis DH-5478 was 0.5 each time. Moreover, in the assay on P. aeruginosa biofilm, the “Biofilm Eradication %” value is 88% and > 80%. Besides, in the assay on C. violaceum CV026, the “Concentration at which anti-QS activity (visible halo zone) was observed” value (shortened to “Concentration at which anti-QS activity”) came to 0.0625 µg/mL.
Turning to `CCOC(=O)c1ccc(N=Nc2c(N=Cc3ccc(N(C)C)cc3)n[nH]c2N)cc1` [Compound 5a, Ethyl 4-((5-amino-3-((4-(dimethylamino)benzylidene)amino)-1H-pyrazol-4-yl)diazenyl)benzoate], the MIC in the assay with P. aeruginosa DH-5698 was found to be 0.5 ± 0.1 µg/mL (≈ 1.23 µM); with tested isolates (other isolates (not S. aureus, E. coli)) it was 0.5 µg/mL (≈ 1.23 µM); in the assay on S. pyogenes DH-3467, 0.5 ± 0.1 µg/mL (≈ 1.23 µM); with E. coli DH-5987, 0.25 µg/mL (≈ 0.617 µM); in the assay on E. faecalis DH-5478, 0.5 ± 0.2 µg/mL (≈ 1.23 µM). The MBC/MIC with P. aeruginosa DH-5698, with S. pyogenes DH-3467, with E. coli DH-5987 and against E. faecalis DH-5478 was 0.5 each time. Moreover, the “Biofilm Eradication %” value in the assay with S. aureus biofilm was 69% and 69 ± 0.24%; in the assay on P. aeruginosa biofilm it was 63% and 63 ± 0.52%. The “Concentration at which anti-QS activity” value in the assay on C. violaceum CV026 is 0.187 µg/mL.
Regarding `CCOC(=O)c1ccc(N=Nc2c(N)nn3c(C)cc(C)nc23)cc1` [Compound 6, ethyl-4-((2-amino-5,7-dimethylpyrazolo[1,5-a]pyrimidin-3-yl)diazenyl)benzoate], the MIC was 0.375 ± 0.4 µg/mL (≈ 1.11 µM) with P. aeruginosa DH-5698; 0.187 to 0.375 µg/mL (≈ 0.553 to 1.11 µM) against tested isolates (S. aureus, E. faecalis, and P. aeruginosa); 0.25 ± 0.3 µg/mL (≈ 0.739 µM) in the assay with S. pyogenes DH-3467; 0.25 ± 0.1 µg/mL (≈ 0.739 µM) in the assay with E. coli DH-5987; 0.375 ± 0.2 µg/mL (≈ 1.11 µM) with E. faecalis DH-5478. The MBC/MIC in the assay with P. aeruginosa DH-5698, in the assay with S. pyogenes DH-3467, in the assay on E. coli DH-5987 and against E. faecalis DH-5478 was 0.5 in each case. Moreover, the “Biofilm Eradication %” value in the assay on S. aureus biofilm was 80% and 80 ± 0.63%; in the assay with P. aeruginosa biofilm, 76% and 76 ± 0.52%. For the same molecule, the “Concentration at which anti-QS activity” value in the assay on C. violaceum CV026 is 0.125 µg/mL.
`CCOC(=O)c1ccc(N=Nc2c(N)nn3c(N)c(C#N)c(-c4ccc(N(C)C)cc4)nc23)cc1` [Compound 9a, Ethyl-4-((2,7-diamino-6-cyano-5-(4-(dimethylamino)phenyl)pyrazolo[1,5-a]pyrimidin-3-yl)diazenyl)benzoate]: the MIC with P. aeruginosa DH-5698 was 0.375 ± 0.3 µg/mL (≈ 0.799 µM); with Gram-positive isolates, 0.25 to 0.5 µg/mL (≈ 0.532 to 1.06 µM); in the assay with S. pyogenes DH-3467, 0.25 ± 0.2 µg/mL (≈ 0.532 µM); in the assay on E. coli DH-5987 it was 0.125 µg/mL (≈ 0.266 µM); with E. faecalis DH-5478, 0.5 ± 0.1 µg/mL (≈ 1.06 µM). For the same molecule, the MBC/MIC in the assay with P. aeruginosa DH-5698, in the assay with S. pyogenes DH-3467, against E. coli DH-5987 and with E. faecalis DH-5478 was 0.5 in each case. In addition, the “Biofilm Eradication %” value with S. aureus biofilm is 72% and 72 ± 0.81%; in the assay with P. aeruginosa biofilm it was 66% and 66 ± 0.9%. Further, the values for the MBC with Gram-positive isolates and with E. coli DH-5987 were 0.125 to 0.25 µg/mL (≈ 0.266 to 0.532 µM) and 0.0625 µg/mL (≈ 0.133 µM), respectively. Also, the “Concentration at which anti-QS activity” value in the assay on C. violaceum CV026 was 0.187 µg/mL. Further, the “MIC (Mean ± SEM)” value in the assay with E. coli DH-5987 worked out at 0.125 ± 0.1 µg/mL (≈ 0.266 µM).
Take `CCOC(=O)c1ccc(N=Nc2c(N)nn3c(O)c(C#N)c(-c4ccc(N(C)C)cc4)nc23)cc1` [Compound 10a, Ethyl-4-((2-amino-6-cyano-5-(4-(dimethylamino)phenyl)-7-hydroxypyrazolo[1,5-a]pyrimidin-3-yl)diazenyl)benzoate]: in the assay with P. aeruginosa DH-5698, the MIC stood at 0.187 ± 0.1 µg/mL (≈ 0.397 µM) and the MBC/MIC is 0.5. Further, the “Biofilm Eradication %” value with P. aeruginosa biofilm was 80% and > 80%. For the same molecule, the “Concentration at which anti-QS activity” value with C. violaceum CV026 came to 0.0625 µg/mL. Further, in the assay on S. pyogenes DH-3467, the MIC is 0.187 ± 0.2 µg/mL (≈ 0.397 µM) and the MBC/MIC was found to be 0.5. In addition, in the assay with E. coli DH-5987, the “MIC (Mean ± SEM)” value came to 0.125 ± 0.2 µg/mL (≈ 0.266 µM), the minimal bactericidal concentration (MBC) is 0.0625 µg/mL (≈ 0.133 µM) and the MIC was 0.125 µg/mL (≈ 0.266 µM). Moreover, in the assay on E. faecalis DH-5478, the MIC was found to be 0.187 ± 0.1 µg/mL (≈ 0.397 µM) and the MBC/MIC came out at 0.5.

Broadly, the MIC is the smallest concentration in the dilution series that meets the test's criterion for growth inhibition. Broadly, the MBC is the smallest concentration meeting the test's criterion for killing. A low value points to greater bactericidal potency.

The values are drawn from PMC9854762, “Antibiofilm and Anti-Quorum-Sensing Activities of Novel Pyrazole and Pyrazolo[1,5-a]pyrimidine Derivatives as Carbonic Anhydrase I and II Inhibitors: Design, Synthesis, Radiosterilization, and Molecular Docking Studies” (Antibiotics, 2023).
